In data set [1] the test system is PCV2. Put plainly: Infectivity assay (titer, immunoblotting, qPCR, IFA). It is filed as cell-based, porcine circovirus type 2 (PCV2). To be noted: for anti-infective (antiviral) effect on PCV2: PK-15 cells, MOI = 1.0.
The target of data set [2] is T1, PCV2 dcapsid bound to Heparin-Sepharose (Porcine circovirus 2, UniProt O56129).
T1 construct: hexahistidine (N); made in house; host or cells: Escherichia coli BL21 (DE3)
Put plainly: Heparin column chromatography (competitive elution of dcapsid). The format is binding, porcine circovirus type 2 (PCV2).

The target of data set [3] is T2, PCV2 capsid protein (dcapsid) (Porcine circovirus 2, UniProt O56129).
T2 construct: hexahistidine (N); made in house; host or cells: Escherichia coli BL21 (DE3)
Put plainly: Microscale thermophoresis assay (MST), wild-type dcapsid. The format is binding, porcine circovirus type 2 (PCV2).

For data set [4], the system named is PCV2 dcapsid mutants bound to heparin column. Put plainly: Heparin column chromatography of dcapsid mutants. It is filed as binding, porcine circovirus type 2 (PCV2).
Another data set deals with T3, PCV2 dcapsid mutant D78A (Porcine circovirus 2, UniProt O56129, D78A).
T3 construct: hexahistidine (N); made in house; host or cells: Escherichia coli BL21 (DE3)
Put plainly: Microscale thermophoresis assay (MST), dcapsid mutant D78A. It is filed as binding, porcine circovirus type 2 (PCV2). The conditions noted are these: read-out: Kd between EGCG and capsid mutant D78A.

Another data set concerns the target T4, PCV2 dcapsid mutant R51A (Porcine circovirus 2, UniProt O56129, R51A).
T4 construct: hexahistidine (N); made in house; host or cells: Escherichia coli BL21 (DE3)
Put plainly: Microscale thermophoresis assay (MST), dcapsid mutant R51A. It is filed as binding, porcine circovirus type 2 (PCV2). To be noted: read-out: Kd between EGCG and capsid mutant R51A.

The test system of another data set is PCV2 virions. Put plainly: Binding assay of virions to PK-15 cells (qPCR, flow cytometry). It is filed as cell-based, porcine circovirus type 2 (PCV2). To be noted: 100 μM, binding 1 h at 4 °C, MOI = 5.0.
The next data set deals with PK-15 cells. Put plainly: Cytotoxicity assay (CCK8). The format is cell-based, Porcine.
Data set [5] relates to PCV2. Put plainly: Time of addition and dilution experiment. It is filed as cell-based, porcine circovirus type 2 (PCV2). The conditions noted are these: for inhibitory effect of post-infection treatment: immunoblotting at 72 hpi.
The target of another data set is T5, PCV2 dcapsid mutant N75A (Porcine circovirus 2, UniProt O56129, N75A).
T5 construct: hexahistidine (N); made in house; host or cells: Escherichia coli BL21 (DE3)
Put plainly: Microscale thermophoresis assay (MST), dcapsid mutant N75A. It is filed as binding, porcine circovirus type 2 (PCV2). The conditions noted are these: read-out: Kd between EGCG and capsid mutant N75A.

In the next data set the target is T6, PCV2 dcapsid mutant G54A (Porcine circovirus 2, UniProt O56129, G54A).
T6 construct: hexahistidine (N); made in house; host or cells: Escherichia coli BL21 (DE3)
Put plainly: Microscale thermophoresis assay (MST), dcapsid mutant G54A. It is filed as binding, porcine circovirus type 2 (PCV2). The conditions noted are these: read-out: Kd between EGCG and capsid mutant G54A.

Another data set has as its target T7, PCV2 dcapsid mutant R73A (Porcine circovirus 2, UniProt O56129, R73A).
T7 construct: hexahistidine (N); made in house; host or cells: Escherichia coli BL21 (DE3)
Put plainly: Microscale thermophoresis assay (MST), dcapsid mutant R73A. It is filed as binding, porcine circovirus type 2 (PCV2). To be noted: read-out: Kd between EGCG and capsid mutant R73A.

For a further data set, the system named is PCV2 mutant viruses. Put plainly: Infectivity assay of rescued PCV2 mutant viruses. The format is cell-based, porcine circovirus type 2 (PCV2). The conditions noted are these: 100 μM, whole infective process, titers at 72 hpi.
The next data set has as its target T8, PCV2 dcapsid mutant D70A (Porcine circovirus 2, UniProt O56129, D70A).
T8 construct: hexahistidine (N); made in house; host or cells: Escherichia coli BL21 (DE3)
Put plainly: Microscale thermophoresis assay (MST), dcapsid mutant D70A. To be noted: read-out: Kd between EGCG and capsid mutant D70A. The format is binding, porcine circovirus type 2 (PCV2).

“Also recorded” adds a separate entry of the source.

The source of these data is paper PMC7077276 (Viruses, 2020).

T1 sequence (O56129 42-233): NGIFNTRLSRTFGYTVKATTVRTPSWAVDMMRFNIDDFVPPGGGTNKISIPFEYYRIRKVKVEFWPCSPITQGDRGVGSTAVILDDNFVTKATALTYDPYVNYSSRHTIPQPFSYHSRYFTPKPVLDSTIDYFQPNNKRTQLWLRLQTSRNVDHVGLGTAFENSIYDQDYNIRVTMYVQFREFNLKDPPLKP
T2 sequence (O56129 42-233): as above
T6 sequence (O56129 42-233 G54A): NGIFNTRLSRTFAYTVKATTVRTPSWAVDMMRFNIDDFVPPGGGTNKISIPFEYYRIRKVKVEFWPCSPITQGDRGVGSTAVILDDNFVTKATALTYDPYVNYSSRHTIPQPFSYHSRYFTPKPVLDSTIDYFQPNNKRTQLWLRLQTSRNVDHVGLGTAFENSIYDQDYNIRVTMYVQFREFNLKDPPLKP
T4 sequence (O56129 42-233 R51A): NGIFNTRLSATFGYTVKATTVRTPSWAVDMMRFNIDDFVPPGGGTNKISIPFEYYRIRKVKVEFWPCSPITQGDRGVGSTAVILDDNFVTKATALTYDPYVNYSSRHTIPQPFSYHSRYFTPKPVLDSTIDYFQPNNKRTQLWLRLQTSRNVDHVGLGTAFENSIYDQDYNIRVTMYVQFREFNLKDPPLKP
T5 sequence (O56129 42-233 N75A): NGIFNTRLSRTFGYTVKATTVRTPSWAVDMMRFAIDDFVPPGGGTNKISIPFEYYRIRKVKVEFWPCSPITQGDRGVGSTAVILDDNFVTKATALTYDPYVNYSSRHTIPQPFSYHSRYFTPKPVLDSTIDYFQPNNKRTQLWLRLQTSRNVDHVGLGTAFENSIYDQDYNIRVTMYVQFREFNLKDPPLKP
T8 sequence (O56129 42-233 D70A): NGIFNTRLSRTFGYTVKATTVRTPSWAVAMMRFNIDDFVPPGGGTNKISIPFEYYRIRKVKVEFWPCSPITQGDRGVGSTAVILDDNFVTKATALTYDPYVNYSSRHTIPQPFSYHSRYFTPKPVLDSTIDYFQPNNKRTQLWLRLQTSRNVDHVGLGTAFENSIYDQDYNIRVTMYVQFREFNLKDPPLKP
T3 sequence (O56129 42-233 D78A): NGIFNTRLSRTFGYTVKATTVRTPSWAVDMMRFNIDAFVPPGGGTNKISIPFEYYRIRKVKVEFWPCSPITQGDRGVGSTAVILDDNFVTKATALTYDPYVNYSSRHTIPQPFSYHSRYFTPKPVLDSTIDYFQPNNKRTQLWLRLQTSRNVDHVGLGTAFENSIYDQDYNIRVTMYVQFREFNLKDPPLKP
T7 sequence (O56129 42-233 R73A): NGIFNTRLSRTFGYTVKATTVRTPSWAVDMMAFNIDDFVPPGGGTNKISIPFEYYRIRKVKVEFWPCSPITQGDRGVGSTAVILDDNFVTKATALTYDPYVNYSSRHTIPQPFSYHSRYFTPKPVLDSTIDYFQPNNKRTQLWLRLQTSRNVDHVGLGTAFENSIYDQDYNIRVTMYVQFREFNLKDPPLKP

Consider `Oc1cc(O)c2c(c1)O[C@H](c1ccc(O)c(O)c1)[C@H](O)C2` [EC, epicatechin, reference compound], for which the “anti-infective (antiviral) effect on PCV2” value in the data set on PCV2 [1] (100 μM) is “no considerable anti-infective effect; also recorded: did not exert an antiviral effect”. Also, in data set [2] (competitor 0.05 mg/mL), the “dcapsid protein fraction eluted from heparin column” value is on record as 10.33 ± 4.50%. The molecule also had a dissociation constant (Kd) in [3] of 951.3 ± 6.81 µM. In addition, the “lower affinity to capsid than EGCG” value in [3] (MST, ratio of Kd) turned out to be 10 fold.

With heparin [reference compound], the “eluted level of R51A and R73A mutants” value in data set [4] (0.5 mg/mL heparin) is recorded as “most significant eluted reduction”.

As to `O=C(O[C@@H]1Cc2c(O)cc(O)cc2O[C@@H]1c1cc(O)c(O)c(O)c1)c1cc(O)c(O)c(O)c1` [EGCG, Epigallocatechin gallate], the Kd at PCV2 dcapsid mutant D78A stood at 1061 ± 8.08 µM; on PCV2 dcapsid mutant R51A, 591 ± 5.57 µM; at PCV2 dcapsid mutant N75A, 164 ± 5.29 µM; at PCV2 dcapsid mutant G54A, 99.3 ± 9.29 µM; on PCV2 dcapsid mutant R73A, 971 ± 9.54 µM; at PCV2 dcapsid mutant D70A, 863.7 ± 7.23 µM. In addition, in [3], the affinity, expressed as Kd, was 98 ± 4.76 µM. Besides, the “eluted level of R51A, D70A, R73A and D78A mutants” value in data set [4] (0.5 mg/mL EGCG, especially D70A and D78A) is “remarkably reduced”. Moreover, the “inhibitory effect of PCV2 infection (immunoblotting, qPCR)” value in the data set with PCV2 [1] (10 μM, 72 hpi) was “still detectable”. The “viral capsid protein expression (immunoblotting)” value with PCV2 [1] (100 μM, 72 hpi) is recorded as “reduced level”. In addition, the “viral genome copy number (qPCR)” value in the data set with PCV2 [1] (100 μM, 72 hpi) is “reduction”. Moreover, the “quantity of PCV2 infected cells (IFA)” value in the data set with PCV2 [1] (100 μM, MOI = 1.0, vs. without treatment) is on record as “obviously lower”. Further, the “anti-infective (antiviral) effect on PCV2” value in the data set with PCV2 [1] (100 μM) is given as “exhibited an inhibitory effect”. For the same molecule, the “virus titer of PCV2 infected cells” value in the data set on PCV2 [1] (100 μM, whole infective process, various time points, vs. without treatment) is “significant decrease”. Moreover, in the data set on PCV2 virions, the “bound PCV2 particles (qRT-PCR)” value was “decrease significantly”. The “proportion of PCV2-attached cells (flow cytometry)” value with PCV2 virions (untreated ~70%) is listed as ~ 55%. Besides, the “cytotoxicity to PK-15 cells” value is “did not generate significant cytotoxicity; also recorded: without causing significant toxicity” in the data set on PK-15 cells (100 μM, 24 h, 72 h and 120 h); “could produce cytotoxicity” with PK-15 cells (200 μM). Also, the “inhibitory effect of post-infection treatment” value is given as “significant inhibitory effect could not be detected” with PCV2 [5] (100 μM for 4 h or 12 h after PCV2 infection) and “only a slight effect” with PCV2 [5] (100 μM for 24 h after PCV2 infection). For the same molecule, the “inhibitory effect, pre-treated cells group” value in the data set with PCV2 [5] (cells pre-exposed 60 min at 37 °C, then infected, 72 hpi, immunoblotting, qPCR, titer) is “inhibitory effect could not be detected”. The “antiviral effect in dilution assay” value with PCV2 [5] (virions pretreated with 100 μM, diluted 10-fold before inoculation, immunoblotting, qPCR, titer) was “antiviral effect could still be detected”. The “antiviral effect, pre-treated virions group” value is given as “non-sensitive” with PCV2 [5] (virus premixed with 10 μM, 72 hpi) and “prominent antiviral effect” with PCV2 [5] (virus premixed with 100 μM, 72 hpi). Also, in the data set on PCV2 mutant viruses, the “antiviral effect on PCV2 (D70A) and PCV2 (D78A)” value is reported as “could not be detected”. In addition, the “antiviral effect on PCV2 (G54A), PCV2 (N75A), PCV2 (WT) and PCV2 (A135A)” value with PCV2 mutant viruses is reported as “could inhibit the infectivity”. Also, the “dcapsid protein fraction eluted from heparin column” value worked out at 42.33 ± 3.52% in data set [2] (competitor 0.05 mg/mL) and 90.00 ± 5.29% in data set [2] (competitor 0.5 mg/mL).
